# Experimental data published in US9945845B2, “Methods of screening using amphibians” (priority 2009, dated 2018).
# Counter-ions that a name gives are not always drawn. Like-named read-outs stand apart in the source and are kept apart here.
# Test system: Xenopus embryos
# Details: for Type of edema Ventral: ‡ = edemas also detected in the gut; for Type of edema Periocular: * = causing bulging eyes, # = bilateral, causing narrow-set eyes
# Protocol: 10-μl aliquots of the chemicals were transferred from the mother plates with a liquid handling robot (Aquarius, Tecan) into 96-well tissue culture plates to generate diluted stock plates (2 mM in DMSO; 50 μl final volume). […] Once embryos reached stage 31 (37 hpf), 10-μl aliquots of the diluted chemicals were added to the wells. […] Negative control wells contained embryos in screening medium and 0.1×MMR only. Embryos were treated with the chemicals in a humidified incubator at 23° C. over a timeframe of 4 days. Embryos were manually scored for the presence of edema or other morphological phenotypes using a teaching dissecting microscope (SV6; Carl Zeiss). Two investigators performed separately the scoring daily at stages 39 (56 hpf), 41 (76 hpf), 45 (98 hpf), and 47 (120 hpf). Dead embryos were removed and 100 μl of water was added daily to each well to compensate for fluid evaporation. […] For imaging at the end of the experiments. Xenopus tadpoles were anesthetized with 0.05% tricaine (Sigma #A5040) in 0.1×MMR. Images were captured using a stereomicroscope (SteREO Lumar V12; Carl Zeiss) equipped with a digital camera (AxioCam Color; Carl Zeiss).
# Xenopus late tailbud embryos at stage 31 (37 hpf) were selected for compound treatment. […] Embryos were arrayed into 48-well dishes (five per well) and treated with test compounds at a concentration of 20 μM in the presence of 1% DMSO. […] All 48-well dishes also contained replicates of negative controls (1% DMSO). Embryos were monitored daily over a period of four days for edema formation. In addition, drug-induced lethality and other externally visible phenotypes were scored. On average, 320 compounds were screened per week.
# [1] = compounds causing lethality, 20 μM, 1% DMSO, treatment from stage 31, Nieuwkoop & Faber stage
# [2] = compounds causing cytotoxicity, 20 μM, 1% DMSO, treatment from stage 31, Nieuwkoop & Faber stage
# [3] = compounds causing edema, 20 μM, 1% DMSO, treatment from stage 31, scored to stage 47
# [4] = onset of edema, 20 μM, 1% DMSO, treatment from stage 31, Nieuwkoop & Faber stage
# [5] = embryonic stage, — = no stage of lethality given
# [6] = onset of pigmentation defects, 20 μM, 1% DMSO
# [7] = compounds causing other phenotypic defects, 20 μM, scored to stage 47
# [8] = onset of other phenotypic defects, 20 μM, 1% DMSO
smiles,measurement,setting,value
"CC(C)Cc1ccc(C(C)C(=O)O)cc1 (racemic) [(±)-Ibuprofen, alpha-Methyl-4-(isobutyl)phenylacetic acid]",Lethality (NF),"Xenopus laevis, in vivo",45 NF
O=C(O)CCCCC1CCSS1 (racemic) [(±)-alpha-Lipoic Acid],Type of edema Pericordial,embryonic stage,39 embryonic stages according to Nieuwkoop and Faber (NF)
same,Type of edema Pronephric,embryonic stage,42 embryonic stages according to Nieuwkoop and Faber (NF)
CCCCCCCCCCCCCCCCCC(=O)OC(CC(=O)O)C[N+](C)(C)C.[Cl-] (racemic) [DL-Stearoylcarnitine chloride],Lethality (NF),[1],41 NF
CCCCCCCCCCCCCCCC(=O)OC(CC(=O)O)C[N+](C)(C)C.[Cl-] (racemic) [Palmitoyl-DL-Carnitine chloride],Lethality (NF),[2],32 NF
CCCCCCCCCCCCCCCC(=O)NCC(COP(=O)([O-])OCC[N+](C)(C)C)OCC (racemic) [rac-2-Ethoxy-3-hexadecanamido-1-propylphosphocholine],Lethality (NF),[2],32 NF
CCCCCCCCCCCCCCCCCC(=O)NCC(COP(=O)([O-])OCC[N+](C)(C)C)OCC (racemic) [rac-2-Ethoxy-3-octadecanamido-1-propylphospocholine],Lethality (NF),[2],32 NF
"O.c1cnc2c(c1)ccc1cccnc12 [1,10-Phenanthroline monohydrate]",Lethality (NF),[3],46 NF
same,Onset (NF),[4],39/40
"O.c1cnc2c(c1)ccc1cccnc12 [1,10-Phenenthroline monohydrate]",Type of edema Pericordial,embryonic stage,39/40
same,Lethality,[5],46 embryonic stages according to Nieuwkoop and Faber (NF)
same,Type of edema Ventral,embryonic stage,41/42
S=C(Nc1ccccc1)Nc1nccs1 [1-Phenyl-3-(2-thiazolyl)-2-thiourea],Onset (NF),[6],33/34
"COC1=C(OC)C(=O)c2ccccc2C1=O [2,3-Dimethoxy-1,4-naphthoquinone]",Lethality (NF),[7],42 NF
C[N+](C)(C)CCC(=O)c1cccc2ccccc12.[I-] [2-(alpha-Naphthoyl)ethyltrimethylammonium iodide],Lethality (NF),[2],32 NF
N#CCCN.N#CCCN.O=C(O)/C=C/C(=O)O [3-Aminopropionitrile fumarate],Onset (NF),[8],46 NF
O=C(O)c1cc([N+](=O)[O-])ccc1NCCCc1ccccc1 [5-Nitro-2-(3-phenylpropylamino)benzoic acid],Lethality (NF),[2],32 NF
"O=c1[nH]c2ccccc2c2ccccc12 [6(5H-Phenanthridinone, 6(5H)-Phenanthridinone]",Lethality (NF),[3],47 NF
same,Type of edema Pericordial,embryonic stage,45 embryonic stages according to Nieuwkoop and Faber (NF)
same,Type of edema Periocular,embryonic stage,45 embryonic stages according to Nieuwkoop and Faber (NF)
same,Lethality,[5],47 embryonic stages according to Nieuwkoop and Faber (NF)
same,Type of edema Ventral,embryonic stage,45 embryonic stages according to Nieuwkoop and Faber (NF)
CC1=C(/C=C/C(C)=C/C=C/C(C)=C\C(=O)O)C(C)(C)CCC1 [13-cis-retinoic acid],Lethality (NF),[3],46 NF
same,Type of edema Pronephric,embryonic stage,45 embryonic stages according to Nieuwkoop and Faber (NF)
same,Type of edema Cerebral,"embryonic stage, + = cerebral edema extending dorso-anteriorly and displacing the eyes",45+ embryonic stages according to Nieuwkoop and Faber (NF)
same,Lethality,[5],46 embryonic stages according to Nieuwkoop and Faber (NF)
same,Type of edema Ventral,embryonic stage,41/42
same,Onset (NF),[4],41/42
"CC[C@@H]1Cc2cc(O)ccc2C2=C1c1ccc(O)cc1C[C@H]2CC [(5R, 11R)-5,11-Diethyl-5,6,11,12-tetrahydro-2,8-chrysenediol]",Lethality (NF),[1],41 NF
CN[C@@H](C)[C@H](O)c1ccccc1.CN[C@@H](C)[C@H](O)c1ccccc1.O=S(=O)(O)O [(-)-Ephedrine hemisulfate],Onset (NF),[6],33/34
"CS(=O)(=O)O.Cc1c(C(=O)c2cccc3ccccc23)c2cccc3c2n1[C@H](CN1CCOCC1)CO3 [(R)-(+)-WIN 55,212-2 mesylate, (R)-(+)-[2,3-Dihydro-5-methyl-3[(morpholinyl)methyl]pyrrolo[1,2,3-de]-1,4-benzoxazinyl]-(1-naphthalenyl)methanone mesylate]",Lethality (NF),[2],32 NF
CC[C@@]1(O)C(=O)OCc2c1cc1n(c2=O)Cc2cc3ccccc3nc2-1 [(S)-(+)-Camptothecin],Lethality (NF),[7],41/42
same,Onset (NF),[8],39 NF
"CCn1cc(C(=O)O)c(=O)c2ccc(Cc3ccccc3)nc21 [Amfonelic acid, 7-Benzyl-1-ethyl-1,4-dihydro-4-oxo-1,8-naphthyridine-3-carboxylic acid]",Onset (NF),[6],33/34
"CCNC(=O)N1CCN(CCCC(c2ccc(F)cc2)c2ccc(F)cc2)CC1.Cl [Amperozide hydrochloride, 4-[4,4-bis(4-Fluorophenyl)butyl]-N-ethyl-1-piperazinecarboxamide hydrochloride]",Type of edema Pericordial,embryonic stage,41/42
same,Type of edema Periocular,embryonic stage,45 embryonic stages according to Nieuwkoop and Faber (NF)
same,Type of edema Ventral,embryonic stage,41/42
same,Onset (NF),[4],41/42
"CN1CCc2cccc3c2[C@H]1Cc1ccc(O)c(O)c1-3 [Apomorphine hydrochloride hemihydrate, 10,11-Dihydroxyaporphine hydrochloride hemihydrate]",Onset (NF),[6],33/34
"CC(C)(C)c1ccc(S(=O)(=O)/C=C/C#N)cc1 [Bay 11-7085, (E)-3-(4-t-Butylphenylsulfortyl)-2-propenenitrile]",Lethality (NF),[2],32 NF
C[C@H]1CCC/C=C/[C@@H]2C[C@H](O)C[C@H]2[C@H](O)/C=C/C(=O)O1 [Brefeldin A],Lethality (NF),[2],33/34
Nc1nc2ccc(Cl)cc2c2nc(-c3ccco3)nn12 [CGS -15943],Type of edema Pericordial,embryonic stage,41/42
same,Type of edema Pronephric,embryonic stage,45 embryonic stages according to Nieuwkoop and Faber (NF)
same,Type of edema Ventral,embryonic stage,45 embryonic stages according to Nieuwkoop and Faber (NF)
same,Lethality,in vivo,46 embryonic stages according to Nieuwkoop and Faber (NF)
"Nc1nc2ccc(Cl)cc2c2nc(-c3ccco3)nn12 [CGS-15943, 9-Chloro-2-(2-furyl)[1,2,4]triazolo[1,5-c]quinazolin-5-amine]",Lethality (NF),"Xenopus laevis, in vivo",46 NF
same,Onset (NF),in vivo,41/42
O=C(/C=C/c1ccc(O)c(O)c1)OCCc1ccccc1 [Caffeic acid phenethyl ester],Lethality (NF),"compounds causing pigmentation defects, 20 μM, scored to stage 47",39 NF
same,Onset (NF),[6],33/34
CNc1ccc2oc(C[C@H]3O[C@@]4(CC[C@H]3C)O[C@H]([C@H](C)C(=O)c3ccc[nH]3)[C@H](C)C[C@H]4C)nc2c1C(=O)O [Calcimycin],Lethality (NF),[2],32 NF
CC1(C(=O)O)C2CCC(O2)C1(C)C(=O)O (stereo not drawn) [Cantharidic Acid],Lethality (NF),[2],32 NF
C[C@@]12C(=O)OC(=O)[C@]1(C)[C@H]1CC[C@@H]2O1 [Cantharidin],Lethality (NF),[2],32 NF
CN1CCC[C@@H]1CCO[C@](C)(c1ccccc1)c1ccc(Cl)cc1 [Clemastine fumarate],Type of edema Pericordial,embryonic stage,46 embryonic stages according to Nieuwkoop and Faber (NF)
same,Type of edema Periocular,embryonic stage,46 embryonic stages according to Nieuwkoop and Faber (NF)
same,Type of edema Ventral,embryonic stage,45 embryonic stages according to Nieuwkoop and Faber (NF)
"S=C(OC1CC2CC1C1CCCC21)[S][K] [D-609 potassium, Carbonodithioic acid, O-(octahydro-4,7-methano-1H-inden-5-yl) ester potassium]",Lethality (NF),[2],33/34
O=c1c2ccccc2[nH]c(=S)n1CCN1CCC(=C(c2ccc(F)cc2)c2ccc(F)cc2)CC1 [Diacylglycerol Kinase Inhibitor II],Type of edema Pronephric,embryonic stage,45 embryonic stages according to Nieuwkoop and Faber (NF)
same,Type of edema Periocular,embryonic stage,46 embryonic stages according to Nieuwkoop and Faber (NF)
same,Type of edema Ventral,embryonic stage,41/42
same,Onset (NF),[4],41/42
Cc1nc2sccn2c(=O)c1CCN1CCC(=C(c2ccccc2)c2ccc(F)cc2)CC1 [Diacylglycerol kinase inhibitor I],Type of edema Periocular,embryonic stage,45 embryonic stages according to Nieuwkoop and Faber (NF)
same,Type of edema Ventral,embryonic stage,45 embryonic stages according to Nieuwkoop and Faber (NF)
same,Onset (NF),[4],45 NF
